Broadly, the IC50 is the concentration needed to halve the response being measured. What is called Ki is a dissociation constant, usually derived from enzyme kinetics or from competition with a known ligand.

Assay [1] concerns the target T1, cystathionine-γ-lyase (CSE) (Homo sapiens, UniProt P32929).
T1 construct: gene CTH; N-terminal GST fusion (pGEX-4T3), expressed in E. coli BL21(DE3) Codon Plus; eluted with reduced GSH, no tag cleavage described
Kind of assay: methylene blue H2S assay, concentration-response. The format is biochemical.

For assay [2], the target named is T1, cystathionine-γ-lyase (CSE). Kind of assay: methylene blue H2S assay, secondary plot of Lineweaver-Burk slopes. The assay is classed as biochemical.
Assay [3] has the same target. Kind of assay: absorbance spectroscopy. The assay is classed as binding. As to conditions: covalently attached to Lys212.
The target in assay [4] is T2, cystathionine-ß-synthase (CBS) (Homo sapiens, UniProt P35520).
T2 construct: N-terminal GST fusion (pGEX-Kg), expressed in E. coli BL21(DE3) Codon Plus; eluted with reduced GSH, no tag cleavage described; homotetramer
T2 sequence (P35520 1-551): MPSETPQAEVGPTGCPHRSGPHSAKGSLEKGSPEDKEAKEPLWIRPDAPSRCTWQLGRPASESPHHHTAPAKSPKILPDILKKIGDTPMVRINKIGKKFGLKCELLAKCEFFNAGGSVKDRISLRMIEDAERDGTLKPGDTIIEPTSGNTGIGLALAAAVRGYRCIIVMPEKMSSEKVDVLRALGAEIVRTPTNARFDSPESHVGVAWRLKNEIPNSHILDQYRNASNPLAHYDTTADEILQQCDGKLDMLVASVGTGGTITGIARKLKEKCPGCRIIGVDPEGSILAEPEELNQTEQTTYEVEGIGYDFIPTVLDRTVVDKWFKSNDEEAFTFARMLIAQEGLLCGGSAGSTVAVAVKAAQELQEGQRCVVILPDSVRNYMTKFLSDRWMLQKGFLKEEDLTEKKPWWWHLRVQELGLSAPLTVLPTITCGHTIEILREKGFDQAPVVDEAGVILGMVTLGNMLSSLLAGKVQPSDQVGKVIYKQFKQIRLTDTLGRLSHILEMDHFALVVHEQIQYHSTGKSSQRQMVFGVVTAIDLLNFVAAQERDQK
Kind of assay: absorbance spectroscopy. The format is binding. To be noted: bound at Lys119.

T1 sequence (P32929 whole entry, the tested form may be a part): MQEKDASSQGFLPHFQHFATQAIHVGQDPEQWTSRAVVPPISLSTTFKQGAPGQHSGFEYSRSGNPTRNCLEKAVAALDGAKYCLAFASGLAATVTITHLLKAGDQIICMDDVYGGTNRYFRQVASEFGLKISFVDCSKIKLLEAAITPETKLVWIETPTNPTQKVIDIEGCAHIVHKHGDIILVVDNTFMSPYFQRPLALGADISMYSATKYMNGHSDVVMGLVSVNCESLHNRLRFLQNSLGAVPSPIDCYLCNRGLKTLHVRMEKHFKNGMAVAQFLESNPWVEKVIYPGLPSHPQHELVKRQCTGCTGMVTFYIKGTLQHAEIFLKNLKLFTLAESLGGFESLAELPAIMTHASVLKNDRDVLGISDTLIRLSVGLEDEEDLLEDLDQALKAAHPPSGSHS

Compound `C#CCNC(=O)[C@@H]1CSC(=O)N1` [2a, compound 2a] came in with an IC50 in assay [1] of 6.3 ± 1 µM. The affinity in assay [2], expressed as Ki, was 13 µM.
In assay [1], `C#CCC(N)C(=O)O` (centres unmarked) [PAG] displayed a half-maximal inhibitory concentration (IC50) of 42.2 ± 1.1 µM.
Take `Cc1ncc(COP(=O)(O)O)c(C=O)c1O` [PLP]: the absorbance spectroscopy entry is “enzymes are correctly folded and bind the respective prosthetic groups” in assay [3]; “enzymes are correctly folded and bind the respective prosthetic groups” in assay [4].

(Values after article PMC5052628, “Fragment-based de novo design of a cystathionine γ-lyase selective inhibitor blocking hydrogen sulfide production” (Scientific Reports, 2016).)
